Experimental data as given in ChEMBL document CHEMBL1128105, “Synthesis of new azino fused benzimidazolium salts. a new family of DNA intercalating agents. I” (Bioorg Med Chem Lett, 1995).

tested on: HT-29; assay: In vitro inhibitory activity against colon carcinoma HT-29 cells after 72 hr using in-house program; assay type: functional, cell-based; conditions: Homo sapiens, HT-29, 72 h

EC50 [µM]	Compound
3.7	Cn1c2ccccc2[n+]2nc3c(cc12)-c1cccc2cccc-3c12
54	CCOC(=O)Cn1c2ccccc2[n+]2nc3c(cc12)-c1cccc2cccc-3c12
1.8	CCOC(=O)Cn1c2ccccc2[n+]2c(C(=O)OCC)c3c(cc12)-c1cccc2cccc-3c12
24	COC(=O)c1ccc(Cn2c3ccccc3[n+]3nc4c(cc23)-c2cccc3cccc-4c23)cc1
> 100	NCCNC(=O)Cn1c2ccccc2[n+]2nc3c(cc12)-c1cccc2cccc-3c12
37	Nn1c2ccccc2[n+]2nc3c(cc12)-c1cccc2cccc-3c12
3.7	c1ccc(Cn2c3ccccc3[n+]3nc4c(c(-c5ccccc5)c23)-c2cccc3cccc-4c23)cc1
1.5	c1ccc(Cn2c3ccccc3[n+]3nc4c(cc23)-c2cccc3cccc-4c23)cc1
2.1	CCOC(=O)c1c2c(cc3n(Cc4ccccc4)c4ccccc4[n+]13)-c1cccc3cccc-2c13
